One data set concerns the target human FXla (Homo sapiens, UniProt P03951). The data set is described as follows: Activity assay of coagulation factor FXla inhibitor (S-2366 substrate, OD405nm). The format is biochemical. The settings on record: 5 concentrations 200 nM to 0.32 nM, 0.8 nM (2X) human FXla working solution. An excerpt:
X: log value of compound concentration; Y: inhibition rate (%).

In another data set the test system is human plasma. The data set can be described thus: determination of in-vitro anticoagulant effect in human plasma (APTT). Format: biochemical. The settings on record: for APTT prolongation rate (%): healthy human plasma, 37°C for 3 min; for EC150: estimated from the APTT test results in human plasma. On the procedure:
After centrifugation, the plasma sample was pipetted and frozen (-80°C) for later use.
A proper amount of a compound was weighed and prepared into a 10-100 mM stock solution using 100% of DMSO (the specific concentration of the stock solution was determined based on the properties of the compound); and then working solutions with various concentrations (specifically: 1 µM, 3 µM and 10 µM, respectively) were prepared from the stock solution using the healthy human plasma as a solution and thoroughly mixed. After incubation at 37°C for 3 min, the sample was placed on an instrument (model: CS-2000I) to determine APTT.
GraphPad Prism software was used for analysis to calculate the APTT prolongation rate at each concentration.

The nature of data set [1]: Study of pharmacokinetics in rats. Format: in vivo. To be noted: rat, po; male SD rats, intragastrical gavage, 30 mg/kg, plasma. On the procedure:
Each group was administered via intragastrical gavage at a dose of 30 mg/kg.
About 0.5 mL of blood was collected, placed in an EDTA-K2 tube, centrifuged to separate plasma, and stored at -80°C. The drug plasma concentration was measured using a liquid chromatography-tandem mass spectrometry analysis system (LC-MS/MS), and pharmacokinetic parameters, such as AUC0-t, Cmax, Tmax and t1/2, were calculated based on the drug plasma concentration data using DAS 2.0 software.

Data set [2] in a line: Effect of continuous in-vivo administration on general condition and food intake of rats. The settings on record: 500 mg/kg PO once a day for 14 days, within 24 hours after the last administration; for food intake compared with the blank group: SD rats. The text has this: Each group had 10 rats, equally distributed by gender. The rats received drug administrations via oral gavage once a day for 14 consecutive days, following the administration regimen outlined in the table below. The blank group was given an equal volume of a vehicle. […] Table 4 Continuous administration regimen

The text below walks through data of patent EP4640678A1, “NOVEL OXO-PYRIDINE COMPOUND, PREPARATION METHOD THEREFOR, AND USE THEREOF” (Chengdu Shibeikang Biomedical Technology Co., Ltd., priority 2022, dated 2024).

Chain of human FXla (P03951 388-625 limits assumed): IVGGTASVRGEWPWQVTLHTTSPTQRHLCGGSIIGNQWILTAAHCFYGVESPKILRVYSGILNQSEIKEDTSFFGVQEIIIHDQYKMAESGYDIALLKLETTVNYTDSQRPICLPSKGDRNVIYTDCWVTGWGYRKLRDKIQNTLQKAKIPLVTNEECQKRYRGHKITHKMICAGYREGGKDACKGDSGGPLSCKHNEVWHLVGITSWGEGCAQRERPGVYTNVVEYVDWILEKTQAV
Chain of human FXla (P03951 19-387 partner limits assumed): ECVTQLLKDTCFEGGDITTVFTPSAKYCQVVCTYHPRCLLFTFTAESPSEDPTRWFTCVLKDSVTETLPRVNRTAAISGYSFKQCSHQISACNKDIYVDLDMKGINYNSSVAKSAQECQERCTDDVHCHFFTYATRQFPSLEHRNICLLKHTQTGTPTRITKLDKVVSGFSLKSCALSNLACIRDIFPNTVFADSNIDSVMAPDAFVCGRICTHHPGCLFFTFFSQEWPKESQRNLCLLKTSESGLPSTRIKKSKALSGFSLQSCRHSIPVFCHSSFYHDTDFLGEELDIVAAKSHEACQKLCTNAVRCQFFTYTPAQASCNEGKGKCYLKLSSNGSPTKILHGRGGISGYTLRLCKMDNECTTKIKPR

Usually IC50 stands for the midpoint of a concentration-inhibition curve. As to `CC[C@@H](C(=O)Nc1ccc(C(N)=O)c(Cl)c1)n1cc(OC)c(-c2cc(Cl)ccc2-n2cc(C(F)(F)F)nn2)cc1=O` [Compound 1, (S)-2-chloro-4-(2-(4-(5-chloro-2-(4-(trifluoromethyl)-1H-1,2,3-triazol-1-yl)phenyl)-5-methoxy-2-oxopyridin-1(2H)-yl)butanamido)benzamide], at human FXla, it took 7.53 nM to reach half-maximal inhibition (IC50). Further, the “APTT prolongation rate (%)” value in the data set on human plasma (3 µM) stood at 65.8%; in the data set with human plasma (10 µM) it was 136.5%. Also, the EC150 entry in the data set on human plasma is recorded as “less than 1 µM”.
Broadly, the AUC(0-t) is the area under the concentration-time curve up to a stated or last time point. A lower AUC(0-t) goes with less exposure. A word on the Cmax: it is the peak of the concentration-time curve. In general, Tmax refers to the time at which the peak concentration occurs. For orientation: half-life means how long it takes for the measured level to halve. Read a high half-life as slow loss. As to `CC[C@@H](C(=O)Nc1ccc(C(=O)O)c(Cl)c1)n1cc(OC)c(-c2cc(Cl)ccc2-n2cc(C(F)(F)F)nn2)cc1=O` [Compound 2, (S)-2-chloro-4-(2-(4-(5-chloro-2-(4-(trifluoromethyl)-1H-1,2,3-triazol-1-yl)phenyl)-5-methoxy-2-oxopyridin-1(2H)-yl)butanamido)benzoic acid], in data set [1], the AUC(0-t) worked out at 85.9 µg·h/mL, the Cmax was 6740 ng/mL, the Tmax was 3.94 h and the half-life is 7.75 h. The compound further gave an IC50 on human FXla of 0.91 nM. In addition, in data set [2], the “Food intake (g, mean±SD)” value turned out to be 27.22 ± 1.33 g and the “food intake compared with the blank group” value is given as “essentially the same food intake as the blank group”. Besides, the “APTT prolongation rate (%)” value in the data set with human plasma (3 µM) was determined as 88.9%. In the data set on human plasma (10 µM), the “APTT prolongation rate (%)” value was 124.8%. Moreover, in the data set on human plasma, the EC150 result was “less than 1 µM”.
The compound `CC[C@@H](C(=O)Nc1ccc(C(N)=O)c(OC)c1)n1cc(OC)c(-c2cc(Cl)ccc2-n2cc(C(F)(F)F)nn2)cc1=O` [Compound 5, (S)-4-(2-(4-(5-chloro-2-(4-(trifluoromethyl)-1H-1,2,3-triazol-1-yl)phenyl)-5-methoxy-2-oxopyridin-1(2H)-yl)butanamido)-2-methoxybenzamide] had an IC50 against human FXla of 5.6 nM. Also, the figures for the “APTT prolongation rate (%)” value in the data set with human plasma (3 µM) and with human plasma (10 µM) were 84.6% and 125.8%, respectively. Further, the EC150 result with human plasma is “less than 1 µM”.
As to `CC[C@@H](C(=O)Nc1ccc(C(=O)O)c(OC)c1)n1cc(OC)c(-c2cc(Cl)ccc2-n2cc(C(F)(F)F)nn2)cc1=O` [Compound 6, (S)-4-(2-(4-(5-chloro-2-(4-(trifluoromethyl)-1H-1,2,3-triazol-1-yl)phenyl)-5-methoxy-2-oxopyridin-1(2H)-yl)butanamido)-2-methoxybenzoic acid], in data set [1], the AUC(0-t) turned out to be 89.8 µg·h/mL, the Cmax came to 6440 ng/mL, the Tmax came out at 4.1 h and the half-life was 7.08 h. In addition, the IC50 on human FXla was determined as 0.96 nM. For the same compound, in the data set on human plasma (3 µM), the “APTT prolongation rate (%)” value came out at 78.0%. For the same compound, in the data set on human plasma (10 µM), the “APTT prolongation rate (%)” value is 135.1%. Further, in the data set with human plasma, the EC150 entry is “less than 1 µM”.
For `CC[C@@H](C(=O)Nc1ccc(C(=O)O)c(Cl)c1)n1cc(OC)c(-c2cc(Cl)ccc2-n2cc(Cl)nn2)cc1=O` [Compound 9, (S)-2-chloro-4-(2-(4-(5-chloro-2-(4-chloro-1H-1,2,3-triazol-1-yl)phenyl)-5-methoxy-2-oxopyridin-1(2H)-yl)butanamido)benzoic acid], the midpoint of inhibition against human FXla, the IC50, lay at 6.32 nM. In addition, the “APTT prolongation rate (%)” value in the data set with human plasma (1 µM) was determined as 44.3%; in the data set on human plasma (3 µM), 69.5%; with human plasma (10 µM), 103.8%.
As to `CC[C@@H](C(=O)Nc1ccc(C(N)=O)cc1F)n1cc(OC)c(-c2cc(Cl)ccc2-n2cc(C(F)(F)F)nn2)cc1=O` [Compound 13, (S)-4-(2-(4-(5-chloro-2-(4-(trifluoromethyl)-1H-1,2,3-triazol-1-yl)phenyl)-5-methoxy-2-oxopyridin-1(2H)-yl)butanamido)-3-fluorobenzamide], at human FXla, the IC50 was determined as 25.5 nM. For the same compound, the figures for the “APTT prolongation rate (%)” value with human plasma (3 µM) and in the data set with human plasma (10 µM) were 80.2% and 175.9%, respectively. Also, the EC150 result in the data set with human plasma is given as “less than 1 µM”.
For `CC[C@@H](C(=O)Nc1ccc(C(=O)NC)c(F)c1)n1cc(OC)c(-c2cc(Cl)ccc2-n2cc(C(F)(F)F)nn2)cc1=O` [Compound 17, (S)-4-(2-(4-(5-chloro-2-(4-(trifluoromethyl)-1H-1,2,3-triazol-1-yl)phenyl)-5-methoxy-2-oxopyridin-1(2H)-yl)butanamido)-2-fluoro-N-methylbenzamide] the same measures were 1.65 nM, 82.6%, 145.3% and “less than 1 µM”.
`CC[C@@H](C(=O)Nc1ccc(C(=O)NC)c(OC)c1)n1cc(OC)c(-c2cc(Cl)ccc2-n2cc(C(F)(F)F)nn2)cc1=O` [Compound 18, (S)-4-(2-(4-(5-chloro-2-(4-(trifluoromethyl)-1H-1,2,3-triazol-1-yl)phenyl)-5-methoxy-2-oxopyridin-1(2H)-yl)butanamido)-2-methoxy-N-methylbenzamide] had a 50% inhibitory concentration (IC50) against human FXla of 9.06 nM. Besides, the entries for the “APTT prolongation rate (%)” value with human plasma (1 µM), in the data set on human plasma (3 µM) and with human plasma (10 µM) were 33.2%, 46.1% and 90.6%, respectively.
At human FXla, `[2H]C([2H])([2H])Oc1cn([C@@H](CC)C(=O)Nc2ccc(C(N)=O)c(Cl)c2)c(=O)cc1-c1cc(Cl)ccc1-n1cc(C(F)(F)F)nn1` [Compound 22, (S)-2-chloro-4-(2-(4-(5-chloro-2-(4-(trifluoromethyl)-1H-1,2,3-triazol-1-yl)phenyl)-5-(methoxy-d3)-2-oxopyridin-1(2H)-yl)butanamido)benzamide] yielded an IC50 of 4.23 nM. The entries for the “APTT prolongation rate (%)” value in the data set on human plasma (1 µM), in the data set on human plasma (3 µM) and with human plasma (10 µM) were 35.6%, 62.0% and 105.9%, respectively.
Turning to `[2H]C([2H])([2H])Oc1cn([C@@H](CC)C(=O)Nc2ccc(C(=O)NC)c(F)c2)c(=O)cc1-c1cc(Cl)ccc1-n1cc(C(F)(F)F)nn1` [Compound 25, (S)-4-(2-(4-(5-chloro-2-(4-(trifluoromethyl)-1H-1,2,3-triazol-1-yl)phenyl)-5-(methoxy-d3)-2-oxopyridin-1(2H)-yl)butanamido)-2-fluoro-N-methylbenzamide], in data set [1], the AUC(0-t) turned out to be 159 µg·h/mL, the maximum concentration (Cmax) amounted to 26500 ng/mL, the Tmax is 2.3 h and the half-life is 1.9 h. Further, the IC50 on human FXla stood at 1.87 nM. In addition, in data set [2], the “Food intake (g, mean±SD)” value amounted to 27.00 ± 1.42 g and the “food intake compared with the blank group” value is reported as “essentially the same food intake as the blank group”. Also, the “APTT prolongation rate (%)” value in the data set on human plasma (3 µM) is 76.7%. For the same compound, the “APTT prolongation rate (%)” value with human plasma (10 µM) is listed as 158.5%. For the same compound, the EC150 entry in the data set with human plasma was “less than 1 µM”.
As to `[2H]C([2H])([2H])NC(=O)c1ccc(NC(=O)[C@H](CC)n2cc(OC)c(-c3cc(Cl)ccc3-n3cc(C(F)(F)F)nn3)cc2=O)cc1F` [Compound 26, (S)-4-(2-(4-(5-chloro-2-(4-(trifluoromethyl)-1H-1,2,3-triazol-1-yl)phenyl)-5-(methoxy)-2-oxopyridin-1(2H)-yl)butanamido)-2-fluoro-N-(methyl-d3)benzamide], in data set [1], the AUC(0-t) was determined as 129 µg·h/mL, the peak level (Cmax) was 21000 ng/mL, the time to peak (Tmax) turned out to be 2.7 h and the half-life was 3.33 h. Besides, it took 1.15 nM to reach half-maximal inhibition against human FXla (IC50). In data set [2], the “Food intake (g, mean±SD)” value turned out to be 26.49 ± 1.21 g and the “food intake compared with the blank group” value is recorded as “essentially the same food intake as the blank group”. For the same compound, in the data set with human plasma (3 µM), the “APTT prolongation rate (%)” value was 78.3%. Moreover, the “APTT prolongation rate (%)” value with human plasma (10 µM) was determined as 159.5%. The EC150 result in the data set with human plasma is on record as “less than 1 µM”.
